{"source": "patent US6479499B1", "key": {"[1]": {"tested_on": "epidermoid carcinoma of the nasopharynx (KB)", "test": "In vitro cytotoxicity, KB", "conditions": "Homo sapiens; for IC50: 96 h, read-out: ED50 KB; for inhibition at 20 µg/mL: read-out: Inhibition at highest test concentration (in brackets), KB"}, "[2]": {"tested_on": "human ovarian cancer (1A9)", "test": "In vitro cytotoxicity, 1A9", "conditions": "96 h, read-out: ED50 1A9"}, "[3]": {"tested_on": "bone (HOS)", "test": "In vitro cytotoxicity, HOS", "conditions": "Homo sapiens; for IC50: 96 h, read-out: ED50 HOS; for inhibition at 20 µg/mL: read-out: Inhibition at highest test concentration (in brackets), HOS"}, "[4]": {"tested_on": "prostate cancer (PC3)", "test": "In vitro cytotoxicity, PC3", "conditions": "Homo sapiens; for IC50: 96 h, read-out: ED50 PC3; for inhibition at 20 µg/mL: read-out: Inhibition at highest test concentration (in brackets), PC3"}, "[5]": {"tested_on": "ileocecal carcinoma (HCT-8)", "test": "In vitro cytotoxicity, HCT-8", "conditions": "Homo sapiens; for IC50: HCT-8, 96 h, read-out: ED50 HCT-8; for inhibition at 20 µg/mL: HCT-8, read-out: Inhibition at highest test concentration (in brackets), HCT-8"}, "[6]": {"tested_on": "lung carcinoma (A-549)", "test": "In vitro cytotoxicity, A-549", "conditions": "Homo sapiens; for IC50: A549, 96 h, read-out: ED50 A-549; for inhibition at 20 µg/mL: A549, read-out: Inhibition at highest test concentration (in brackets), A-549"}, "[7]": {"tested_on": "breast cancer (MCF-7)", "test": "In vitro cytotoxicity, MCF-7", "conditions": "Homo sapiens; for IC50: MCF7, 96 h, read-out: ED50 MCF-7; for inhibition at 20 µg/mL: MCF7, read-out: Inhibition at highest test concentration (in brackets), MCF-7"}, "[8]": {"tested_on": "P-gp-expressing epidermoid carcinoma of the nasopharynx (KB-VIN)", "test": "In vitro cytotoxicity, KB-VIN", "conditions": "Homo sapiens, KBVIN; for IC50: 96 h, read-out: ED50 KB-VIN"}, "[9]": {"tested_on": "melanoma (SKMEL-2)", "test": "In vitro cytotoxicity, SKMEL-2", "conditions": "for IC50 / inhibition at 20 µg/mL: Homo sapiens; for IC50: SK-MEL-2, 96 h, read-out: ED50 SKMEL-2; for inhibition at 20 µg/mL: SK-MEL-2, read-out: Inhibition at highest test concentration (in brackets), SKMEL-2; for Inhibition value of plateau-dose response (in brackets), SKMEL-2: inhibition plateaus over broad dose range"}, "[10]": {"tested_on": "bovine brain tubulin", "test": "Tubulin polymerization assay (antimicrotubule assay)", "conditions": "read-out: ITP (inhibition of tubulin polymerization) IC50; tubulin […] (12 μM), 26° C., 20 min"}, "[11]": {"tested_on": "platelet aggregation induced by arachidonic acid (AA)", "test": "Antiplatelet assay, arachidonic acid-induced aggregation", "type": "cell-based, rabbit", "conditions": "AA 100 μM, 37° C., 1 min preincubation, read-out: IC50, platelet aggregation induced by arachidonic acid (in vitro) (Table 6)", "method": "c. Antiplatelet assay. Blood, collected from the marginal ear vein of rabbits was mixed with EDTA to a final concentration of 6 mM and centrifuged at 90 g for 10 mm at room temperature to obtain platelet-rich plasma. The latter was further centrifuged at 500 g for 10 mm and the platelets were washed with Tyrode's solution without EDTA. After centrifugation at the same conditions, the platelets were suspended in Tyrode's solution with the following compositions (mM): NaCl (136.8), KCl (2.8), NaNCO3(11.9), MgCl2(1.1), NaH2PO4(0.33), CaCl2(1.0), and glucose (11.2). Platelet numbers were determined with a Coulter Counter (Model ZM) and adjusted to 4.5×10^8 platelets/ml.\nAggregation was measured by the turbidimetric method [O'brien, J. R. J. Clin. Pathol. 1962, 15,452] with a dual-channel Lumi aggregometer (Model 1020, Payton, Canada). All glass ware was siliconized. Test compounds were added one minute before the addition of the aggregation inducer and the platelet suspension was stirred at 900 rpm. The percentage of aggregation was calculated as previously described [Teng, C. M.; Chen, W. Y.; Ko, W. C.; Ouyang, C. Biochem. Biophys. Acta. 1987, 924, 375]."}, "[12]": {"conditions": "Oryctolagus cuniculus, Platelet"}}, "note": "Where two headings read alike, the source gives them in different places.", "data": [{"molecule": "COc1ccc(C2NC(=O)c3ccccc3N2)c(OC)c1", "note": "(racemic) [Compound 64, 2,3-Dihydro-2-(2′,4′-dimethoxyphenyl)-4-quinazolinone]", "values": [{"measurement": "IC50", "setting": "[1]", "value": "> 20", "unit": "µg/mL"}, {"measurement": "inhibition at 20 µg/mL", "setting": "[1]", "value": 43, "unit": "%"}, {"measurement": "IC50", "setting": "[2]", "value": 12.5, "unit": "µg/mL"}, {"measurement": "IC50", "setting": "[3]", "value": "> 20", "unit": "µg/mL"}, {"measurement": "inhibition at 20 µg/mL", "setting": "[3]", "value": 40, "unit": "%"}, {"measurement": "IC50", "setting": "[4]", "value": "> 20", "unit": "µg/mL"}, {"measurement": "inhibition at 20 µg/mL", "setting": "[4]", "value": 28, "unit": "%"}, {"measurement": "IC50", "setting": "[5]", "value": "> 20", "unit": "µg/mL"}, {"measurement": "inhibition at 20 µg/mL", "setting": "[5]", "value": 29, "unit": "%"}, {"measurement": "IC50", "setting": "[6]", "value": "> 20", "unit": "µg/mL"}, {"measurement": "inhibition at 20 µg/mL", "setting": "[6]", "value": 43, "unit": "%"}, {"measurement": "IC50", "setting": "[7]", "value": "> 20", "unit": "µg/mL"}, {"measurement": "inhibition at 20 µg/mL", "setting": "[7]", "value": 44, "unit": "%"}, {"measurement": "IC50", "setting": "[8]", "value": 7.6, "unit": "µg/mL"}, {"measurement": "IC50", "setting": "[9]", "value": "> 20", "unit": "µg/mL"}, {"measurement": "inhibition at 20 µg/mL", "setting": "[9]", "value": 37, "unit": "%"}, {"measurement": "IC50", "setting": "[10]", "value": "> 40", "unit": "µM"}]}, {"molecule": "COc1ccc(C2NC(=O)c3ccccc3N2)cc1", "note": "(racemic) [Compound 62, 2,3-Dihydro-2-(4′-methoxyphenyl)-4-quinazolinone]", "values": [{"measurement": "IC50", "setting": "[1]", "value": "> 20", "unit": "µg/mL"}, {"measurement": "inhibition at 20 µg/mL", "setting": "[1]", "value": 14, "unit": "%"}, {"measurement": "IC50", "setting": "[2]", "value": 20, "unit": "µg/mL"}, {"measurement": "IC50", "setting": "[3]", "value": "> 20", "unit": "µg/mL"}, {"measurement": "inhibition at 20 µg/mL", "setting": "[3]", "value": 13, "unit": "%"}, {"measurement": "IC50", "setting": "[4]", "value": "> 20", "unit": "µg/mL"}, {"measurement": "inhibition at 20 µg/mL", "setting": "[4]", "value": 14, "unit": "%"}, {"measurement": "IC50", "setting": "[5]", "value": "> 20", "unit": "µg/mL"}, {"measurement": "inhibition at 20 µg/mL", "setting": "[5]", "value": 19, "unit": "%"}, {"measurement": "IC50", "setting": "[6]", "value": "> 20", "unit": "µg/mL"}, {"measurement": "inhibition at 20 µg/mL", "setting": "[6]", "value": 34, "unit": "%"}, {"measurement": "IC50", "setting": "[7]", "value": "> 20", "unit": "µg/mL"}, {"measurement": "inhibition at 20 µg/mL", "setting": "[7]", "value": 44, "unit": "%"}, {"measurement": "IC50", "setting": "[8]", "value": "> 20", "unit": "µg/mL"}, {"measurement": "inhibition at 20 µg/mL", "setting": "[8]; read-out: Inhibition at highest test concentration (in brackets), KB-VIN", "value": 39, "unit": "%"}, {"measurement": "IC50", "setting": "[9]", "value": "> 20", "unit": "µg/mL"}, {"measurement": "inhibition at 20 µg/mL", "setting": "[9]", "value": 23, "unit": "%"}, {"measurement": "IC50", "setting": "[10]", "value": "> 40", "unit": "µM"}]}, {"molecule": "COc1ccccc1C1NC(=O)c2ccccc2N1", "note": "(racemic) [Compound 60, 2,3-Dihydro-2-(2′-methoxyphenyl)-4-quinazolinone]", "values": [{"measurement": "IC50", "setting": "[1]", "value": "> 20", "unit": "µg/mL"}, {"measurement": "inhibition at 20 µg/mL", "setting": "[1]", "value": 32, "unit": "%"}, {"measurement": "IC50", "setting": "[2]", "value": 14.7, "unit": "µg/mL"}, {"measurement": "IC50", "setting": "[3]", "value": "> 20", "unit": "µg/mL"}, {"measurement": "inhibition at 20 µg/mL", "setting": "[3]", "value": 38, "unit": "%"}, {"measurement": "IC50", "setting": "[4]", "value": "> 20", "unit": "µg/mL"}, {"measurement": "inhibition at 20 µg/mL", "setting": "[4]", "value": 30, "unit": "%"}, {"measurement": "IC50", "setting": "[5]", "value": "> 20", "unit": "µg/mL"}, {"measurement": "inhibition at 20 µg/mL", "setting": "[5]", "value": 21, "unit": "%"}, {"measurement": "IC50", "setting": "[6]", "value": "> 20", "unit": "µg/mL"}, {"measurement": "inhibition at 20 µg/mL", "setting": "[6]", "value": 44, "unit": "%"}, {"measurement": "IC50", "setting": "[7]", "value": "> 20", "unit": "µg/mL"}, {"measurement": "inhibition at 20 µg/mL", "setting": "[7]", "value": 48, "unit": "%"}, {"measurement": "IC50", "setting": "[8]", "value": 10.2, "unit": "µg/mL"}, {"measurement": "IC50", "setting": "[9]", "value": "< 20", "unit": "µg/mL"}, {"measurement": "Inhibition value of plateau-dose response (in brackets), SKMEL-2", "setting": "[9]", "value": 52, "unit": "%"}, {"measurement": "IC50", "setting": "[10]", "value": "> 40", "unit": "µM"}]}, {"molecule": "CCOc1nc(-c2cccc(OC)c2)nc2ccccc12", "note": "[Compound 75, 4-Ethoxy-2-(3′-methoxyphenyl)quinazoline]", "values": [{"measurement": "IC50", "setting": "[11]; [12]", "value": 69.3, "unit": "µM"}]}, {"molecule": "CCOc1nc(-c2ccccc2OC)nc2ccccc12", "note": "[Compound 74, 4-Ethoxy-2-(2′-methoxyphenyl)quinazoline]", "values": [{"measurement": "IC50", "setting": "[11]; [12]", "value": 214, "unit": "µM"}]}, {"molecule": "4-Ethoxycarbonylbutoxy-2-phenylquinazoline [Compound 73]", "values": [{"measurement": "IC50", "setting": "[11]", "value": 173, "unit": "µM"}]}, {"molecule": "COc1cccc(C2NC(=O)c3ccccc3N2)c1OC", "note": "(racemic) [Compound 63, 2,3-Dihydro-2-(2′,3′-dimethoxyphenyl)-4-quinazolinone]", "values": [{"measurement": "IC50", "setting": "[1]", "value": "> 20", "unit": "µg/mL"}, {"measurement": "inhibition at 20 µg/mL", "setting": "[1]", "value": 41, "unit": "%"}, {"measurement": "IC50", "setting": "[2]", "value": 11.4, "unit": "µg/mL"}, {"measurement": "IC50", "setting": "[3]", "value": "> 20", "unit": "µg/mL"}, {"measurement": "inhibition at 20 µg/mL", "setting": "[3]", "value": 34, "unit": "%"}, {"measurement": "IC50", "setting": "[4]", "value": "> 20", "unit": "µg/mL"}, {"measurement": "inhibition at 20 µg/mL", "setting": "[4]", "value": 20, "unit": "%"}, {"measurement": "IC50", "setting": "[5]", "value": "> 20", "unit": "µg/mL"}, {"measurement": "inhibition at 20 µg/mL", "setting": "[5]", "value": 39, "unit": "%"}, {"measurement": "IC50", "setting": "[6]", "value": "> 20", "unit": "µg/mL"}, {"measurement": "inhibition at 20 µg/mL", "setting": "[6]", "value": 39, "unit": "%"}, {"measurement": "IC50", "setting": "[7]", "value": "> 20", "unit": "µg/mL"}, {"measurement": "inhibition at 20 µg/mL", "setting": "[7]", "value": 40, "unit": "%"}, {"measurement": "IC50", "setting": "[8]", "value": 8.6, "unit": "µg/mL"}, {"measurement": "IC50", "setting": "[9]", "value": "< 20", "unit": "µg/mL"}, {"measurement": "Inhibition value of plateau-dose response (in brackets), SKMEL-2", "setting": "[9]", "value": 53, "unit": "%"}, {"measurement": "IC50", "setting": "[10]", "value": "> 40", "unit": "µM"}]}, {"molecule": "CCn1c(-c2ccccc2)nc2ccccc2c1=O", "note": "[Compound 78, N^3-Ethyl-2-phenyl-4-quinazolinone]", "values": [{"measurement": "IC50", "setting": "[11]; [12]", "value": 184, "unit": "µM"}]}]}
